Laboratory results: the supplement of paper PMC11451515

Test system: SEM cells
Experiment: cell viability relative to DMSO control; higher = less cytotoxic
Settings: 48 h
Procedure, shortened: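 Leukemia cells (NOMO1 or SEM, 500 cells/well; P12-Ichikawa, 1000 cells/well) were seeded in 5 μl in 1536-well plates after at least four passages of adaptation to each medium. They received library compounds in DMSO by pin dosing, 11 threefold points from 47 μM to 0.79 nM. Luminescence with CellTiter-Glo One was read after 48 h at 37°C. Viability is stated per plate relative to DMSO wells, with cell-free wells as background.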

[1] = HPLM + 10% dialyzed FBS, 0.000781 µM
[2] = HPLM + 10% dialyzed FBS, 0.00234 µM
[3] = HPLM + 10% dialyzed FBS, 0.00702 µM
[4] = HPLM + 10% dialyzed FBS, 0.0211 µM
[5] = HPLM + 10% dialyzed FBS, 0.0632 µM
[6] = HPLM + 10% dialyzed FBS, 0.19 µM
[7] = HPLM + 10% dialyzed FBS, 0.569 µM
[8] = HPLM + 10% dialyzed FBS, 1.71 µM
[9] = HPLM + 10% dialyzed FBS, 5.12 µM
[10] = HPLM + 10% dialyzed FBS, 15.4 µM
[11] = HPLM + 10% dialyzed FBS, 46.1 µM
[12] = RPMI 5 mM glucose + 10% FBS, 0.000781 µM
[13] = RPMI 5 mM glucose + 10% FBS, 0.00234 µM
[14] = RPMI 5 mM glucose + 10% FBS, 0.00702 µM
[15] = RPMI 5 mM glucose + 10% FBS, 0.0211 µM
[16] = RPMI 5 mM glucose + 10% FBS, 0.0632 µM
[17] = RPMI 5 mM glucose + 10% FBS, 0.19 µM
[18] = RPMI 5 mM glucose + 10% FBS, 0.569 µM
[19] = RPMI 5 mM glucose + 10% FBS, 1.71 µM
[20] = RPMI 5 mM glucose + 10% FBS, 5.12 µM
[21] = RPMI 5 mM glucose + 10% FBS, 15.4 µM
[22] = RPMI 5 mM glucose + 10% FBS, 46.1 µM
[23] = RPMI 5 mM glucose + 10% dialyzed FBS, 0.000781 µM
[24] = RPMI 5 mM glucose + 10% dialyzed FBS, 0.00234 µM
[25] = RPMI 5 mM glucose + 10% dialyzed FBS, 0.00702 µM
[26] = RPMI 5 mM glucose + 10% dialyzed FBS, 0.0211 µM
[27] = RPMI 5 mM glucose + 10% dialyzed FBS, 0.0632 µM
[28] = RPMI 5 mM glucose + 10% dialyzed FBS, 0.19 µM
[29] = RPMI 5 mM glucose + 10% dialyzed FBS, 0.569 µM
[30] = RPMI 5 mM glucose + 10% dialyzed FBS, 1.71 µM
[31] = RPMI 5 mM glucose + 10% dialyzed FBS, 5.12 µM
[32] = RPMI 5 mM glucose + 10% dialyzed FBS, 15.4 µM
[33] = RPMI 5 mM glucose + 10% dialyzed FBS, 46.1 µM

Row | SMILES | cell viability [1] [%] | cell viability [2] [%] | cell viability [3] [%] | cell viability [4] [%] | cell viability [5] [%] | cell viability [6] [%] | cell viability [7] [%] | cell viability [8] [%] | cell viability [9] [%] | cell viability [10] [%] | cell viability [11] [%] | cell viability [12] [%] | cell viability [13] [%] | cell viability [14] [%] | cell viability [15] [%] | cell viability [16] [%] | cell viability [17] [%] | cell viability [18] [%] | cell viability [19] [%] | cell viability [20] [%] | cell viability [21] [%] | cell viability [22] [%] | cell viability [23] [%] | cell viability [24] [%] | cell viability [25] [%] | cell viability [26] [%] | cell viability [27] [%] | cell viability [28] [%] | cell viability [29] [%] | cell viability [30] [%] | cell viability [31] [%] | cell viability [32] [%] | cell viability [33] [%]
1 | CC/C(=C(/c1ccc(O)cc1)c1ccc(OCCNC)cc1)c1ccccc1 | 61.4 | 99.5 | 91.2 | 102 | 103 | 115 | 101 | 96.7 | 65.6 | 59.5 | 26.1 | 66.8 | 102 | 108 | 112 | 107 | 109 | 102 | 94.8 | 65.7 | 47.8 | 25.9 | 53.5 | 106 | 88.3 | 104 | 95.8 | 123 | 97.6 | 97.6 | 69.5 | 43.5 | 38
2 | COC1CCC(CC1)N(C(=O)C2CCC(C)CC2)C3=C(SC(=C3)\C4=C\CCCC4)C(O)=O (centres undefined) | 111 | 120 | 119 | 117 | 113 | 117 | 104 | 115 | 112 | 84.9 | 72.1 | 114 | 111 | 124 | 128 | 144 | 134 | 122 | 121 | 121 | 82.2 | 73.5 | 116 | 114 | 112 | 128 | 138 | 108 | 120 | 137 | 104 | 75.3 | 68
3 | CC(C)NCC(O)COc1ccc(COCCOC(C)C)cc1 (centres undefined) | 110 | 115 | 122 | 103 | 124 | 105 | 129 | 132 | 116 | 110 | 118 | 106 | 124 | 130 | 120 | 132 | 118 | 109 | 123 | 121 | 131 | 105 | 123 | 125 | 124 | 115 | 117 | 129 | 118 | 138 | 106 | 126 | 114
4 | COC1=NC(=NC(=C1N\C2=N\CCN2)Cl)C | 71.4 | 88.7 | 47.6 | 91.8 | 99.9 | 94.1 | 114 | 102 | 44.4 | 108 | 100 | 81 | 79.3 | 45 | 84 | 79.6 | 83.5 | 106 | 81.9 | 34.1 | 103 | 99.2 | 74.6 | 80 | 46.6 | 102 | 104 | 104 | 101 | 101 | 49.6 | 98.7 | 113
5 | Cc1c(CCOc2ccc(C(=O)O)cc2)c2cc(Cl)ccc2n1C(c1ccccc1)c1ccccc1 | 112 | 118 | 104 | 113 | 109 | 105 | 108 | 114 | 105 | 108 | 79.3 | 110 | 108 | 104 | 118 | 94.3 | 104 | 94.9 | 102 | 106 | 106 | 92.7 | 114 | 110 | 97.1 | 109 | 95.9 | 109 | 111 | 104 | 107 | 95.3 | 92.5
6 | CCC[C@H](NC(=O)/C(C#N)=C/c1cccc(Br)n1)c1ccccc1 | 121 | 125 | 119 | 26.5 | 124 | 117 | 111 | 124 | 120 | 98.6 | 6.55 | 94.4 | 110 | 104 | 17.6 | 112 | 111 | 102 | 113 | 111 | 57.1 | 7.49 |  |  |  |  |  |  |  |  |  |  | 
7 | COc1ccc(CC2NCCc3cc(OC)c(OC)cc32)cc1OC (centres undefined) | 89.6 | 93 | 86.6 | 85.3 | 65.7 | 94.2 | 93.3 | 93.7 | 88.4 | 79.5 | 15.4 | 85.2 | 84 | 82.2 | 97.4 | 82.4 | 99.1 | 88.5 | 93.5 | 97.5 | 47 | 12.8 | 85.9 | 78.6 | 90.7 | 87.3 | 71.4 | 98.2 | 105 | 99.9 | 95.2 | 66.8 | 19.3
8 | CCN(CC)CC#CCOC(=O)C(O)(c1ccccc1)C1CCCCC1 (centres undefined) | 108 | 109 | 98.1 | 92.4 | 115 | 111 | 124 | 121 | 105 | 129 | 98.5 | 108 | 117 | 126 | 80 | 115 | 121 | 118 | 120 | 125 | 104 | 102 | 117 | 112 | 145 | 83.3 | 126 | 132 | 142 | 120 | 135 | 129 | 99.3
9 | C/C=C(/C)C(=O)O[C@H]1C(C)=C2[C@H]([C@@H]1OC(=O)CCCCCCC)[C@@](C)(OC(C)=O)C[C@H](OC(=O)CCC)[C@@]1(O)[C@H]2OC(=O)[C@@]1(C)O | 95 | 112 | 111 | 101 | 57 | 13.1 | 8.77 | 7.59 | 7.07 | 6.17 | 6.69 | 105 | 112 | 113 | 85.7 | 23.8 | 10.4 | 6.8 | 6.65 | 7.69 | 5.62 | 6.01 | 107 | 138 | 114 | 82.7 | 33.8 | 9.51 | 7.63 | 5.08 | 4.94 | 3.37 | 3.69
10 | C[C@](O)(COc1ccc(C#N)cc1)C(=O)Nc1ccc(C#N)c(C(F)(F)F)c1 | 70.4 | 77 | 90.7 | 84.9 | 91.3 | 95.5 | 87 | 84.4 | 90.5 | 21.9 | 89.6 | 84.9 | 70.4 | 99.6 | 104 | 90.5 | 93 | 102 | 87.3 | 103 | 14.7 | 39.5 | 83 | 81.6 | 91.9 | 91.5 | 95.6 | 107 | 97.6 | 93.9 | 91 | 20.1 | 49.7
11 | CC1=CC=CC=C1N2\C(=N/C3=C(C(=CC=C3)C)C2=O)C[N]4C=NC5=C4N=CN=C5N | 97.1 | 110 | 115 | 92.6 | 83.8 | 77.7 | 67.3 | 72.1 | 49.6 | 46.6 | 37.2 | 90.8 | 93 | 94.3 | 65.9 | 83.4 | 62.1 | 59.4 | 54.8 | 45 | 34.4 | 20.8 | 93.2 | 112 | 120 | 84.3 | 90 | 77.5 | 68.1 | 64.8 | 53.5 | 46.2 | 33.8
12 | CCCCn1c(=O)n(Cc2ccccc2F)c(=O)c2nc(Cc3ccc(NC(C)=O)cc3)[nH]c21 | 101 | 98.7 | 87.6 | 109 | 104 | 84.9 | 89.8 | 97 | 98.2 | 81.1 | 93.7 | 101 | 102 | 105 | 89.5 | 90.3 | 86.9 | 88.1 | 97.6 | 92.1 | 96.1 | 99.5 | 92.9 | 91.3 | 98.7 | 81.5 | 110 | 85.5 | 85 | 99 | 97.3 | 90.9 | 91.8
13 | COC1=C(N2CCNC(C)C2)C(=CC3=C1N(\C=C(C(O)=O)/C3=O)C4CC4)F (centres undefined) | 74.8 | 88.8 | 83.1 | 84.2 | 51.8 | 66.3 | 55.2 | 51.2 | 13.9 | 21.6 | 18.1 | 98 | 95.1 | 116 | 96 | 53.2 | 92.3 | 58.5 | 61.7 | 44.8 | 37.9 | 25.6 | 73.7 | 73.3 | 79.9 | 83.1 | 48.8 | 60.2 | 48.7 | 38.5 | 13.4 | 26.6 | 12.2
14 | C[C@H]1[C@H](NC(=O)/C(=N/OC(C)(C)C(=O)O)c2csc(N)n2)C(=O)N1[S+](=O)([O-])O | 89.9 | 102 | 100 | 99.3 | 95.2 | 103 | 100 | 93.1 | 104 | 107 | 86.1 | 98.7 | 103 | 106 | 106 | 107 | 88.3 | 104 | 110 | 104 | 101 | 79.7 | 106 | 107 | 121 | 113 | 110 | 129 | 114 | 113 | 105 | 64.8 | 88.2
15 | C/C=C1\NC(=O)[C@H]2CSSCC/C=C\[C@H](CC(=O)N[C@H](C(C)C)C(=O)N2)OC(=O)[C@H](C(C)C)NC1=O | 81.1 | 89 | 95.1 | 101 | 5.64 | 4.52 | 4.32 | 4.63 | 4.25 | 3.1 | 4.21 | 100 | 103 | 105 | 81.5 | 4.85 | 4.94 | 4.25 | 4.39 | 4.14 | 3.14 | 4.36 | 73 | 106 | 85.9 | 90.4 | 5.18 | 4.76 | 4.87 | 4.53 | 4.12 | 2.58 | 4.19
